Measured values reported in patent US12163156B2, “Cell induction method” (INSTITUTE OF ZOOLOGY, CHINESE ACADEMY OF SCIENCES, priority 2018, dated 2024).
Each block holds one molecule with its values, some of them ahead of it.

How the values were obtained:
ICR female mice = test: In vivo experiment: ventral fat content after injection into the ventral side of mice; design: species or system mouse; settings: 0.5 mg/kg injected into the ventral side once a day; for ventral fat content: 19 days, drug stopped for 32 days, vs DMSO group
Protocol: In vivo experiment: the same batch of 6-8 week-old ICR female mice are selected and randomly divided into two groups, 5 in each group. As to one group, small molecule (−)-Blebbistatin or (S)-(−)-Blebbistatin O-Benzoate (0.5 mg/kg, dissolved in 10% DMSO+2% Tween 80+normal saline) is injected into the ventral side of the mice; as to the other group, the same amount of DMSO as the small molecule group is injected in the same way as the experimental group. The injection is performed once a day, 19 days after the injection, and the drug is stopped for 32 days. The mice are sacrificed by cervical dislocation, and the ventral fat content is observed.

[1] = tested on: mouse adult primary hepatocytes; test: In vitro amplification of mouse adult primary hepatocytes (Alb-GFP)
Text: Alb-Cre mice are introduced from BRL Medicine, Cre recombinase is only expressed in mature hepatocytes expressing albumin; Rosa26/mTmG mice are introduced from Charles River, and a red and green fluorescence reporter system is incorporated into the Rosa26 locus of this kind of mouse; normally a tomato red fluorescent protein is expressed in the cells, while in the case of Cre recombination it is changed to express a green fluorescent protein (GFP). Alb-Cre adult mice are hybridizedwith Rosa26/mTmG mice to obtain offspring Alb-Cre×Rosa26/mTmG mice, and mature hepatocytes of the offspring are labeled green, and other tissue cells present the red fluorescent.
Alb-Cre×Rosa26/mTmG adult mice are sacrificed by cervical dislocation, taking out the hepatic lobes, cutting into small pieces, blowing and washing repeatedly with 100 volumes of pre-cooled PBS to remove the blood cells until the washing solution is not red; adding 3-5 volumes of collagenase IV (ThermoFisher, 17104019, preheated at 37° C.) to digest in incubator at 37° C. for 30-40 min, and blowing 2-3 times during the digestion, then centrifuging and removing the supernatant. […] The mouse hepatocyte medium comprises: DMEM/F12 (gibco, 10565018), adding N2 additive (100×, Gibco, 17502048), B27 additive (50×, Gibco, 17504044), 5% bovine serum albumin (1000×, Sigma, A8022), β-mercaptoethanol (1000×, Gibco, 21985023), GlutaMAX (200×, Gibco, 35050-061), non-essential amino acids (100×, Gibco, 11140-050), 1 μg/mL insulin (Roche, 11376497001), hepatocyte growth factor (10 ng/mL, R&D, 294-HG-025), transforming growth factor β inhibitor A83-01 (5 μm, stemgent, 04-0014), glycogen synthase kinase 3β inhibitor Chir99021 (6 μM, stemgent, 04-0004-10), macrophage stimulating protein 1 and 2 inhibitor XMU-MP-1 (2-5 μM, MCE, HY-100526) fibroblast growth factor 4 (10 ng/mL, R&D, 5846-f4-025), double antibiotics.
Without addition of Myosin II inhibitor (−)-Blebbistatin or (S)-(−)-Blebbistatin O-Benzoate, an equal volume of DMSO is added as a control, and the cells are respectively subcultured 3 times (P3), 5 times (P5), and seven times (P7).

[2] = tested on: Mouse embryonic fibroblasts; test: Transdifferentiation of mouse embryonic fibroblasts into adipocytes, oil red O staining; assay type: cell-based; settings: 10 μM added to the original adipocyte induction medium (Myosin inhibitor + BMP4); P<0.001
Protocol: Taking a 12-well plate as an example (coming, 3335), for each well, preparing 20 μg/ml Matrigel solution (BD, 354277) with 1×DMEM and coating for 12 hours; then the coating solution is removed, washing with 1×PBS. Mouse embryonic fibroblasts (C57, prepared by E13.5) or adult foreskin fibroblasts (HFF20y, Beijing Stem Cell Bank) are uniformly seeded in each well, 1×10^4 cells per well; incubating in basic medium (high glucose DMEM (Gibco, C12430500BT), double antibiotics) added with 10% fetal bovine serum (Gibco, 16000-044) for 24 hours. The medium is removed, then washing with PBS. […] The identification of adipocytes is performed by oil red staining of cells, oil red O staining solution (cell-specific, Solarbio, […]) is used, and the details are as follows: removing the medium, adding ORO Fixative to fix for 10-15 min, removing the ORO Fixative, and placing in flowing air for 10-15 min. At this time, ORO Stain is prepared in a ratio of ORO Stain A:ORO Stain B=3:2, standing for 10 min after mixing, then adding to the well; the staining solution is removed after dip dyeing for 15 min, adding 60% isopropanol to rinse for 20-30 s, and washing with distilled water for 3 times, then taking photos under an optical microscope. The neutral fats are orange-red or orange-colored, and the phospholipids are pink.

CYP1A2 gene = CYP1A2 gene induction with omeprazole in small molecule-amplified adult hepatocytes; assay type: cell-based, human; settings: 50 μm omeprazole in 10 μm small molecule medium, 48 hours, vs DMSO
Protocol: (4) 10CYP1A2 adult hepatocytes amplified in 10 μm small medium. 3×10^5 hepatocytes are induced and inoculated in a 24-well plate coated with rat tail tendon collagen, after culturing in a 10 μm small molecule medium for 24 h, then replacing the medium with a 10 μm small molecule medium with 50 μm omeprazole, the control group is a 10 μm small molecule medium containing DMSO, and 48 hours later the cells are collected to detect the expression of the CYP1A2 gene.

[3] = tested on: human embryonic hepatocytes; test: In vitro amplification of human embryonic hepatocytes; assay type: cell-based; settings: for cells amplified (multiple): 12 days subculturing (3 generations in total)
Protocol: (1) Coating the plate. The cell culture plate is coated with rat tail tendon collagen (Thermo scientific, A1048301, 3 mg/mL) at a concentration of […]. Taking a 24-well plate as an example, the bottom area of each hole is 1.9 cm^2, and […] is needed per well (about 3.2 μl); 3.2 μl of rat tail tendon collagen is dissolved in 500 μl of 20 mM glacial acetic acid, adding to the well to incubate in cell culture incubator at 37° C. for 1 h, and after aspirating and abandoning the solution, washing with PBS for 3 times.
(2) Resuscitation of human embryonic hepatocytes. Human embryonic hepatocytes are taken out from liquid nitrogen tanks (freezing date: Jan. 15, 2014; freezing medium: cell banker 2; the number of frozen cells: 2×10^7/tube), quickly placing in a 37° C. water bath, immediately after thawing the cells are sucked into a 15 mL centrifuge tube containing 5 mL of hepatocyte medium (control group), then centrifuging at 50 g, 4° C. for 5 min. The supernatant is discarded, then the cells are resuspended in 500 μl of hepatocyte medium with the number of 1.16×10^6 cells, and the cell resuscitation rate is 5.8%.
(3) Seeding the human embryonic hepatocytes. […] After hepatocyte medium containing 10 μM small molecule (−)-Blebbistatin, and hepatocyte medium containing 20 μM small molecule (−)-Blebbistatin hepatocyte medium are respectively seeded 24 h, for each group the digested cells from 3 wells are counted to calculate the cell attachment rate. After seeding for 72 h, for each group 3 wells of cells are digested and counted. […] A portion of the cells per well (⅖ of the cells counted) are taken for RNA extraction to detect the expression of human hepatocyte-associated genes.
(4) The first passage of human embryonic hepatocytes. […] A portion of the cells per well (⅖ of the cells counted) are taken for RNA extraction to detect the expression of human hepatocyte-associated genes.
(5) The second passage of human embryonic hepatocytes. […] The medium is changed every 2 days, and after continuing to culture for 144 h (6 days), the cells are digested and counted. […]

adult hepatocytes = test: Small molecule amplification of adult hepatocytes; assay type: cell-based, human; settings: for number of cells after 6 days of culturing: control group 1.59×10^4
Protocol: (1) The method for coating the plate is as described above.
(2) Resuscitation and culture of adult hepatocytes. Adult hepatocytes (M00995-P […] human, Bioreclamation IVT) are taken out from a liquid nitrogen tank, then quickly placing in a 37° C. water bath, after thawing the cells are added to 5 mL of 37° C. pre-heated hepatocyte inoculation medium (InVitroGRO CP Medium), after counting the cells are inoculated in a 24-well plate at the density of 9×10^4/well, 2-4 h after hepatocyte adherence, aspirating and abandoning the hepatocyte inoculation medium, and respectively adding hepatocyte culture control medium, 10 μm small molecule medium, and 20 μm small molecule medium. The media are changed every 2 days. The number of cells is estimated from the photograph on day 2. After 4 days, the cells of the 20 μm small molecule medium group are changed to culture in 10 μm small molecule medium. The cells are counted after co-culturing for 6 days. A portion of the cells are taken for RNA extraction to detect the expression of human hepatocyte-specific genes.
(3) Passage of adult hepatocytes. 4.7×10^4 of the hepatocytes cultured in the above-mentioned control group, and 8×10^4 of the hepatocytes cultured 10 μm small-molecule medium are respectively re-inoculated into the 24-well plates coated with rat tail tendon collagen, and the media are changed every two days. After 6 days, photos are taken to record cell growth.

SMILES: Cc1ccc2c(c1)C(=O)[C@]1(OC(=O)c3ccccc3)CCN(c3ccccc3)C1=N2 [(S)-(−)-Blebbistatin O-Benzoate]
ventral fat content increase (ICR female mice; without optimization): about 50%
passaged in vitro ([1]; treated mouse hepatocytes): more than 20 times

SMILES: Cc1cccc(-c2nn(C(=S)Nc3ccccc3)cc2-c2ccnc3ccccc23)n1 [A83-01]
adipocyte induction efficiency [2]: up to 20%

SMILES: NC(=O)c1ccc(-c2nc(-c3ccc4c(c3)OCO4)c(-c3ccccn3)[nH]2)cc1 [SB431542]
adipocyte induction efficiency [2]: 18%

expression of CYP1A2 gene (CYP1A2 gene): can be increased
SMILES: COc1ccc2[nH]c([S+]([O-])Cc3ncc(C)c(OC)c3C)nc2c1 (stereo not shown) [omeprazole]

SMILES: Cc1ccc2c(c1)C(=O)C1(O)CCN(c3ccccc3)C1=N2 (single isomer, unassigned; (-)) [(−)-Blebbistatin]
ventral fat content (ICR female mice): significantly increase
ventral fat content (ICR female mice; listed as Ble): significant increase
human hepatocyte-specific genes albumin and alpha-fetoprotein expression ([3]; 10 μM and 20 μM small molecule media, 12 days subculturing, real-time quantitative PCR): still expressed
cells amplified (multiple) ([3]; 10 μM small molecule medium): about 22.1 times
cells amplified (multiple) ([3]; 20 μM small molecule medium): about 13.0 times
number of cells after 6 days of culturing (adult hepatocytes; 10 μm group): 6.47×10^4 (SD=1.24)
subculture of human hepatocytes (adult hepatocytes; 10 μm small molecule medium, control medium cannot): can make human hepatocytes subculture
number of cells after 6 days of culturing (adult hepatocytes; # group: 20 μm for 4 days then 10 μm for 2 days): 9.47×10^4 (SD=0.98)
expression of human hepatocyte specific genes albumin, AFP, CYP1A2, CYP3A4 (adult hepatocytes; adult hepatocytes amplified with small molecules): still express
expression of the proliferating cell nuclear antigen (PCNA) gene (adult hepatocytes; small molecule group vs control group): significantly higher
amplification effect on adult hepatocytes (cell number day 6 / day 2) (adult hepatocytes; small molecule groups vs control): significant amplification effect
hepatocyte clusters with Alb expression ([1]; 5 μM in mouse hepatocyte medium, fibronectin-coated dish, one week): green hepatocyte clusters with Alb expression are observed
subculturing in vitro ([1]; mouse hepatocytes in medium with Myosin inhibitor): at least 20 generations
long-term amplification of AlB-GFP-positive hepatocytes ([1]; vs DMSO control, subcultured P3, P5, P7): significantly promotes
